# Reference: patent publication US11998008B2, “Pesticides and methods of controlling pests” (The State of Israel, Ministry of Agriculture & Rural …, priority 2017, dated 2024)
# How the values were obtained:
# [1] = system: test fungi; test: Fungicidal activity assay on PDA, summaries over the test fungi; assay type: cell-based; conditions: over the fungi tested
# [2] = system: S. rolfsii; test: Fungicidal activity assay on PDA in sealed Petri dish (growth inhibition and mortality); assay type: cell-based, Sclerotinia rolfsii; conditions: Agroathelia rolfsii; S. rolfsii; NA + number = still viable in the highest concentration tested (given as >); read-out: M - Mortality, minimal concentration that killed the fungus
# [3] = system: Meloidogyne javanica J2s; test: Greenhouse nematocidal experiment with susceptible tomato plants in inoculated loam; assay type: in vivo; conditions: 30 ppm in soil, tomato harvested after 8 weeks
# Procedure: The activity of trans-2-octenal against nematodes was examined in a greenhouse experiment using stage 2 juveniles of the rot-knot nematode Meloidogyne javanica. […] After 2 days, the inoculated soil was treated with 30 ppm of trans-2-octenal and incubated for additional 5 days. Then, susceptible tomato plants were planted, and allowed to grow in a growing chamber for 8 weeks. At the end of the experiment, the plants, along with their root systems, were harvested from their pots and evaluated for incidence of root galling. In addition, M. javanica eggs were extracted from each root and counted, and the number of eggs per gram root was calculated. As shown in FIGS. 14A-14D, trans-2-octenal reduced the galling index and the number of eggs per gram root. […] The activity of 2-cyclohexen-1-one against nematodes was examined in a greenhouse experiment using stage 2 juveniles of the rot-knot nematode Meloidogyne javanica. The experiment was performed as described for trans-2-octenal. […] After 2 days, the inoculated soil was treated with 15 or 31 ppm of 2-cyclohexen-1-one and incubated for additional 5 days. Then, susceptible tomato plants were planted, and allowed to grow in a growing chamber for 8 weeks. At the end of the experiment, the plants, along with their root systems, were harvested from their pots and evaluated for incidence of root galling. In addition, M. javanica eggs were extracted from each root and counted, and the number of eggs per gram root was calculated.
# [4] = system: Solanum nigrum seeds; test: Viability of weed seeds buried in sandy soil; assay type: in vivo; conditions: 54 ppm of emulsion, depth 10 cm, 6 days in soil, evaluated 6 days after resowing
# Procedure: The effect of trans-2-octenal was also examined on the weed Solanum nigrum. To this end, 20 seeds of this weed were put in tea bags and buried in sandy soil at the depth of 10 cm. Six (6) days later, 54 ppm of emulsion of trans-2-octenal were applied via the irrigation system. After additional 6 days the seeds were removed from the soil and sown in fresh loam pots. A control experiment was performed as above except that the seeds were irrigated with tap water without the compound. The viability of the seeds was evaluated after 6 days.
# [5] = system: tomato seedlings; test: Phytotoxicity: growth of tomato seedlings in treated sandy soil in pots; assay type: in vivo; conditions: soil treated with 54 ppm, nine days
# Procedure: Sandy soil from a plot that was treated with 54 ppm of trans-2-octenal was removed to small pots in which either seeds of corn, cotton, and peanut were sown (FIGS. 16A-16C) or tomato seedlings were planted therein (FIG. 16E).
# [6] = system: chlamydospores of Forl; test: Open field experiment in sandy soil; assay type: in vivo, Fusarium oxysporum f sp. radicis-lycopersici; conditions: emulsion, 54 ppm active compound, 6 days
# Procedure: In this experiment, an emulsions of trans-2-octenal (25% active compound) such as those described in Example 9 were used. The soil was inoculated with chlamydospores of Forl and sclerotia of S. rolfsii. Five gram of soil, highly inoculated with chlamydospores were wrapped in nylon tights and buried in the field at depths of 10, 30, and 50 cm. Tea bags containing 50 S. rolfsii sclerotia were prepared as described above and buried similarly. After 6 days, trans-2-octenal emulsion, at concentration of 54 ppm (active compound) was applied using the irrigation system. The same conditions were applied to a control plot except that the plot was irrigated with tap water without the compound. The plots were left open during the time of the experiment. After 6 days, the pathogens were removed from the soil and their viability was examined using PDA+tet culture plates. […] As shown in these figures, elimination of both phytopathogenic fungi occurred at the lowest depth of 10 cm.
smiles,measurement,setting,value
CCCCC/C=C/C=O [trans-2-octenal],concentrations that completely inhibited the fungi growth and killed the fungi,[1],6.25-50 ppm
same,MFC,[2],6.25 µg/mL
same,galling index,[3],reduced
same,number of eggs per gram root,[3],reduced
same,viability of the seeds,[4],eliminated seeds viability
same,growth of the tomato seedling in treated versus untreated soil,[5],no significant difference
same,viability of Forl chlamydospores,[6]; 30 and 50 cm depth,No elimination
same,viability of Forl chlamydospores,"[6]; depth 10 cm, open plot",elimination
